Read-outs that look alike come from different tables or passages of the source.

Eleven molecules from patent US12365687B2 (Hoffmann-La Roche Inc., priority 2021, dated 2025) can be followed below.

The target in assay [1] is human GABAA α1β3γ2 receptor (Homo sapiens (Human), UniProt P14867+P18507). The assay is described as follows: Radioligand binding assay for γ2-containing GABAA subtypes, [3H]Flumazenil competition (α1β3γ2). To be noted: for γ2/γ1 Selectivity Ratio: Ki α1β3γ2 (nM)/Ki α2β2γ1 (nM); for LogSel: Log[Ki α1β3γ2 (nM)/Ki α2β2γ1 (nM)].
Assay [2] concerns the target human GABAA α5β2γ1 receptor (Homo sapiens (Human), UniProt P31644+Q8N1C3). As to the kind of experiment: Radioligand binding assay for γ1-containing GABAA subtypes, [3H]RO7239181 competition (α5β2γ1).
Assay [3] deals with α2β2γ1 GABAA receptor subtype (Homo sapiens (Human), UniProt P47869+Q8N1C3). The assay is described as follows: Two-electrode voltage clamp electrophysiology in Xenopus oocytes expressing GABAA receptors (modulation of GABA EC20 current). It counts as cell-based. Particulars: for Efficacy (GABA)%: % modulation of GABA EC20 = 100*(Fold increase-1), α2β2γ1 oocytes, compound at approx. 30-fold Ki; for Fold increase h-GABA-A α2β2γ1 oocyte @ 30-fold Ki: Xenopus oocytes expressing α2β2γ1, compound at approx. 30-fold its Ki α2β2γ1, GABA EC20 current. In outline:
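Two-electrode voltage clamp at −80 mV, room temperature, 3-5 days after mRNA injection into oocytes. GABA applied at EC20 for 1.5 min, twice, with compound during second application; at least 3 oocytes per concentration. Efficacy = extremum of point-by-point current ratio, expressed as 100×(fold increase−1).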

In assay [4] the target is human GABAA α2β2γ1 receptor (Homo sapiens (Human), UniProt P47869+Q8N1C3). The assay is described as follows: Radioligand binding assay for γ1-containing GABAA subtypes, [3H]RO7239181 competition (α2β2γ1).
Setting [5] is: Ki h-GABAA α2β2γ1, [3H]RO7239181 competition binding, human GABAA α2β2γ1.
Where [6] appears, read: Ki h-GABAA α2β2γ1, displacement of [3H]RO7239181, membranes of HEK293F cells expressing human receptors, means of two determinations.

Consider `C[C@@H]1N=C(c2c(F)cccc2F)c2c(ccc(Cl)c2Cl)-n2cc(C(=O)N3CC(C#N)C3)nc21` [Example 71, 1-[(4S)-7,8-dichloro-6-(2,6-difluorophenyl)-4-methyl-4H-imidazo[1,2-a][1,4]benzodiazepine-2-carbonyl]azetidine-3-carbonitrile], for which, in assay [1], the Ki is 0.389 µM, the “γ2/γ1 Selectivity Ratio” value amounted to 32.8 and the LogSel turned out to be 1.52. In assay [2], this molecule returned a Ki of 0.00184 µM. Besides, in assay [3], the “Efficacy (GABA)%” value was 51% and the “Fold increase h-GABA-A α2β2γ1 oocyte @ 30-fold Ki” value is 1.51. For the same molecule, in assay [4] (setting [5]), the Ki came out at 0.0119 µM. Further, in assay [4] (setting [6]), the Ki was found to be 0.0119 µM.
Regarding `C[C@@H]1N=C(c2c(F)cccc2F)c2c(ccc(Cl)c2Cl)-n2nc(C(=O)N3CC(OC(F)F)C3)nc21` [Example 31, [(4S)-7,8-dichloro-6-(2,6-difluorophenyl)-4-methyl-4H-[1,2,4]triazolo[1,5-a][1,4]benzodiazepin-2-yl]-[3-(difluoromethoxy)azetidin-1-yl]methanone], in assay [1], the inhibitory constant (Ki) came out at 0.565 µM, the “γ2/γ1 Selectivity Ratio” value is reported as 33.2 and the LogSel amounted to 1.52. Also, the Ki in assay [2] is 0.00133 µM. Further, in assay [3], the “Efficacy (GABA)%” value stood at 66% and the “Fold increase h-GABA-A α2β2γ1 oocyte @ 30-fold Ki” value was 1.66. For the same molecule, the affinity in assay [4] (setting [5]), expressed as Ki, was 0.017 µM. This molecule also yielded a Ki in assay [4] (setting [6]) of 0.017 µM.
For `C[C@@H]1N=C(c2c(F)cccc2F)c2c(ccc(Cl)c2Cl)-n2nc(S(N)(=O)=O)nc21` [Example 69, (4S)-7,8-dichloro-6-(2,6-difluorophenyl)-4-methyl-4H-[1,2,4]triazolo[1,5-a][1,4]benzodiazepine-2-sulfonamide], in assay [1], the Ki came out at 1.15 µM, the “γ2/γ1 Selectivity Ratio” value is listed as 60.1 and the LogSel is on record as 1.78. In addition, in assay [2], the affinity, expressed as Ki, was 0.00077 µM. In addition, in assay [3], the “Efficacy (GABA)%” value came out at 97% and the “Fold increase h-GABA-A α2β2γ1 oocyte @ 30-fold Ki” value is reported as 1.97. The molecule further came in with an inhibition constant Ki in assay [4] (setting [5]) of 0.0192 µM. Besides, in assay [4] (setting [6]), the Ki was determined as 0.0192 µM.
With `C[C@@H]1N=C(c2c(F)cccc2F)c2c(ccc(Cl)c2Cl)-n2ncnc21` [Example 15, (4S)-7,8-dichloro-6-(2,6-difluorophenyl)-4-methyl-4H-[1,2,4]triazolo[1,5-a][1,4]benzodiazepine], in assay [1], the Ki was 0.278 µM, the “γ2/γ1 Selectivity Ratio” value amounted to 46.3 and the LogSel is recorded as 1.67. Moreover, in assay [2], the affinity corresponds to a Ki of 0.0004 µM. Besides, in assay [3], the “Efficacy (GABA)%” value is reported as 62% and the “Fold increase h-GABA-A α2β2γ1 oocyte @ 30-fold Ki” value was 1.62. The Ki in assay [4] (setting [5]) came to 0.006 µM. The molecule also registered an inhibition constant Ki in assay [4] (setting [6]) of 0.006 µM.
On to `C[C@@H]1N=C(c2c(F)cccc2F)c2c(ccc(C(F)(F)F)c2Cl)-n2nc(C(=O)NN3CCCC3)nc21` [Example 118, (4S)-7-chloro-6-(2,6-difluorophenyl)-4-methyl-N-pyrrolidin-1-yl-8-(trifluoromethyl)-4H-[1,2,4]triazolo[1,5-a][1,4]benzodiazepine-2-carboxamide], for which the Ki in assay [1] came out at 4.45 µM; in assay [2], 0.00418 µM; in assay [4] (setting [5]) it was 0.0244 µM; in assay [4] (setting [6]), 0.0244 µM. For the same molecule, the “γ2/γ1 Selectivity Ratio” value in assay [1] is reported as 182.7. Besides, the LogSel in assay [1] is 2.26. Moreover, in assay [3], the “Efficacy (GABA)%” value is listed as 120%. In addition, the “Fold increase h-GABA-A α2β2γ1 oocyte @ 30-fold Ki” value in assay [3] was 2.20.
As to `CNC(=O)c1nc2n(n1)-c1ccc(Cl)c(Cl)c1C(c1c(F)cccc1F)=NC2` [Example 6, 7,8-dichloro-6-(2,6-difluorophenyl)-N-methyl-4H-[1,2,4]triazolo[1,5-a][1,4]benzodiazepine-2-carboxamide], in assay [1], the inhibition constant Ki was 1.44 µM, the “γ2/γ1 Selectivity Ratio” value was 260.9 and the LogSel is on record as 2.42. This molecule also yielded a Ki in assay [2] of 0.00075 µM. In assay [3], the “Efficacy (GABA)%” value came to 101% and the “Fold increase h-GABA-A α2β2γ1 oocyte @ 30-fold Ki” value is 2.01. In assay [4] (setting [5]), this molecule registered a Ki of 0.0055 µM. In addition, in assay [4] (setting [6]), affinity was put at a Ki of 0.0055 µM.
Turning to `C[C@@H]1N=C(c2c(F)cccc2F)c2c(ccc(Cl)c2Cl)-n2nc(C(=O)N3CC(C#N)C3)nc21` [Example 41, 1-[(4S)-7,8-dichloro-6-(2,6-difluorophenyl)-4-methyl-4H-[1,2,4]triazolo[1,5-a][1,4]benzodiazepine-2-carbonyl]azetidine-3-carbonitrile], in assay [1], the Ki worked out at 0.389 µM, the “γ2/γ1 Selectivity Ratio” value amounted to 118.6 and the LogSel was 2.07. Moreover, in assay [2], the inhibition constant Ki worked out at 0.00074 µM. Further, in assay [3], the “Efficacy (GABA)%” value was determined as 67% and the “Fold increase h-GABA-A α2β2γ1 oocyte @ 30-fold Ki” value was 1.67. The same molecule returned a Ki in assay [4] (setting [5]) of 0.0033 µM. The molecule also gave a Ki in assay [4] (setting [6]) of 0.00328 µM.
For the molecule `CC1CN(C(=O)c2cn3c(n2)[C@H](C)N=C(c2ncccc2F)c2c-3ccc(C(F)(F)F)c2Cl)C1` [Example 163, (3-methylazetidin-1-yl)-[(4S)-7-chloro-6-(3-fluoro-2-pyridyl)-4-methyl-8-(trifluoromethyl)-4H-imidazo[1,2-a][1,4]benzodiazepin-2-yl]methanone], the Ki worked out at 13.5 µM in assay [1], 0.0206 µM in assay [2], 0.0871 µM in assay [4] (setting [5]) and 0.101 µM in assay [4] (setting [6]). Besides, the “γ2/γ1 Selectivity Ratio” value in assay [1] is on record as 134.0. The molecule further had a LogSel in assay [1] of 2.13. Besides, in assay [3], the “Efficacy (GABA)%” value was determined as 136%. The “Fold increase h-GABA-A α2β2γ1 oocyte @ 30-fold Ki” value in assay [3] worked out at 2.36.
As to `CN(C)C(=O)c1nc2n(n1)-c1ccc(Cl)c(Cl)c1C(c1c(F)cccc1F)=NC2` [Example 9, 7,8-dichloro-6-(2,6-difluorophenyl)-N,N-dimethyl-4H-[1,2,4]triazolo[1,5-a][1,4]benzodiazepine-2-carboxamide], the Ki was found to be 0.989 µM in assay [1]; 0.989 µM in assay [1] (read-out: Ki h-GABAA α1β3γ2, Table 3, reference compounds); 0.00115 µM in assay [2]; 0.0055 µM in assay [4] (Ki h-GABAA α2β2γ1, Table 3, reference compounds); 0.0055 µM in assay [4] (setting [5]); 0.0055 µM in assay [4] (setting [6]). Also, the “γ2/γ1 Selectivity Ratio” value in assay [1] and in assay [1] (Table 3) was 179.8 throughout. The LogSel in assay [1] and in assay [1] (Table 3) was 2.25 in each case. The “Efficacy (GABA)%” value in assay [3] is on record as 123%. The “Fold increase h-GABA-A α2β2γ1 oocyte @ 30-fold Ki” value in assay [3] is listed as 2.23.
Consider `COC1CN(C(=O)c2nc3n(n2)-c2ccc(Cl)c(Cl)c2C(c2ncccc2F)=N[C@H]3C)C1` [Example 38, [(4S)-7,8-dichloro-6-(3-fluoro-2-pyridyl)-4-methyl-4H-[1,2,4]triazolo[1,5-a][1,4]benzodiazepin-2-yl]-(3-methoxyazetidin-1-yl)methanone], for which, in assay [1], the inhibitory constant (Ki) came to 2.2 µM, the “γ2/γ1 Selectivity Ratio” value was 77.8 and the LogSel came out at 1.89. For the same molecule, in assay [2], the inhibition constant Ki came to 0.00446 µM. Besides, in assay [3], the “Efficacy (GABA)%” value was 116% and the “Fold increase h-GABA-A α2β2γ1 oocyte @ 30-fold Ki” value amounted to 2.16. In addition, the Ki in assay [4] (setting [5]) came out at 0.0282 µM. The Ki in assay [4] (setting [6]) worked out at 0.0282 µM.
`C[C@@H]1N=C(c2c(F)cccc2F)c2c(ccc(Cl)c2Cl)-n2nc(C(=O)N3CC(F)C3)nc21` [Example 40, [(4S)-7,8-dichloro-6-(2,6-difluorophenyl)-4-methyl-4H-[1,2,4]triazolo[1,5-a][1,4]benzodiazepin-2-yl]-(3-fluoroazetidin-1-yl)methanone]: in assay [1], affinity was put at a Ki of 0.672 µM, the “γ2/γ1 Selectivity Ratio” value is 91.4 and the LogSel stood at 1.96. This molecule yielded a Ki in assay [2] of 0.0009 µM. Besides, in assay [3], the “Efficacy (GABA)%” value is 89% and the “Fold increase h-GABA-A α2β2γ1 oocyte @ 30-fold Ki” value worked out at 1.89. Moreover, in assay [4] (setting [5]), the inhibition constant (Ki) was 0.0074 µM. In addition, the inhibition constant (Ki) in assay [4] (setting [6]) was 0.00735 µM.
